Measured values as given in the NIST ThermoML archive (doi:10.1016/j.jct.2014.07.001).
Numbers after ± are expanded uncertainties.

Settings: Drop volume

SMILES	surface tension liquid-gas (293.15 K) [mN/m]	surface tension liquid-gas (303.15 K) [mN/m]	surface tension liquid-gas (313.15 K) [mN/m]	surface tension liquid-gas (323.15 K) [mN/m]
CCCC[n+]1cccc(C)c1.F[B-](F)(F)F [1-butyl-3-methylpyridinium tetrafluoroborate]	45.21 ± 0.54	44.48 ± 0.53	43.8 ± 0.52	43.24 ± 0.52
CO [methanol]	22.6 ± 0.26	21.81 ± 0.25	20.93 ± 0.24	20.05 ± 0.23
CCO [ethanol]	22.28 ± 0.26	21.49 ± 0.25	20.66 ± 0.24	19.84 ± 0.23
CCCC[n+]1ccccc1.F[B-](F)(F)F [1-butylpyridinium tetrafluoroborate]	46.9 ± 0.56	46.3 ± 0.55	45.69 ± 0.54	45.11 ± 0.54
CCC[n+]1ccccc1.F[B-](F)(F)F [1-propylpyridinium tetrafluoroborate]	51.29 ± 0.61	50.51 ± 0.6	49.79 ± 0.59	49.03 ± 0.58
CCCC[n+]1ccc(C)cc1.F[B-](F)(F)F [1-butyl-4-methylpyridinium tetrafluoroborate]	45.82 ± 0.54	45.09 ± 0.54	44.41 ± 0.53	43.71 ± 0.52
